Data as given in ChEMBL document CHEMBL5236632, “Membrane-Active Nonivamide Derivatives as Effective Broad-Spectrum Antimicrobials: Rational Design, Synthesis, and Biological Evaluation” (J Med Chem, 2022).
Values after ≈ are worked out from the molar mass of the structure shown.

Key:
Cell membrane = experiment: Induction of outer membrane permeability in Escherichia coli ATCC 25922 assessed as increase fluoresence intensity at 4 to 8 times of MIC measured for 60 mins by NPN uptake assay; type: subcellular
[1] = Toxicity in C57BL/6 mouse cornea assessed as toxicity at 5 mg/ml treated topically; type: tissue-based; conditions: in vivo, topical_or_ocular, route top
Staphylococcus aureus [2] = experiment: Antibacterial activity against Staphylococcus aureus ATCC 29213 assessed as inhibition of visible growth measured after 18 to 24 hrs in presence of 175.5 ug/ml K+ by broth dilution method; type: functional; conditions: time 18-24 hrs
Staphylococcus aureus [3] = experiment: Antibacterial activity against Staphylococcus aureus ATCC 29213 assessed as inhibition of visible growth measured after 18 to 24 hrs in presence of 24.3 ug/ml Mg2+ by broth dilution method; type: functional; conditions: time 18-24 hrs
Escherichia coli = experiment: Antibacterial activity against Escherichia coli ATCC 25922 assessed as reduction in bacterial load at 8 time of MIC measured with in 30 mins by time kill assay; type: functional; conditions: 0.5 h
[4] = Selectivity ratio, HC50 for hemolytic activity in rabbit RBC to MIC for antibacterial activity against Klebsiella pneumoniae ATCC 14581; type: toxicity; conditions: rabbit red blood cells
Klebsiella pneumoniae = experiment: Antibacterial activity against Klebsiella pneumoniae ATCC 10031 assessed as inhibition of visible growth measured after 18 to 24 hrs in presence of 175.5 ug/ml K+ by broth dilution method; type: functional; conditions: time 18-24 hrs
Pseudomonas aeruginosa = experiment: Antibacterial activity against Pseudomonas aeruginosa ATCC 9027 assessed as inhibition of visible growth measured after 18 to 24 hrs by broth dilution method; type: functional; conditions: time 18-24 hrs

CCCCCCCCC(=O)NCc1ccc(OCCCCCCNC(=N)N)c(OCCCCCCNC(=N)N)c1
Activity (Cell membrane): Dose-Dependent Effect | Activity [1]: Non-Toxic | MIC (Staphylococcus aureus [2]): 0.39 µg/mL | MIC (Staphylococcus aureus [3]): 0.39 µg/mL | Activity (Escherichia coli): 4.56 log10CFU/ml | selectivity ratio [4]: 21.6 | MIC (Klebsiella pneumoniae): 0.78 µg/mL | MIC (Pseudomonas aeruginosa): 6.25 µg/mL (≈ 11.1 µM)
